Columns and labels:
P12-Ichikawa [1] = assay: cell viability relative to DMSO control; higher = less cytotoxic; conditions: HPLM + 10% dialyzed FBS, 48 h
Outline: (§1)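 Library compounds in DMSO were pin-dosed in an 11-point threefold series (47 μM to 0.79 nM) onto leukemia cells in 1536-well plates (5 μl). Plates held 500 cells/well of NOMO1 or SEM or 1000 cells/well of P12-Ichikawa, each adapted for at least four passages in each medium. Luminescence was read with CellTiter-Glo One after 48 h at 37°C. Viability means the per-plate percentage relative to DMSO wells, using cell-free wells as background.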

SEM cells [2] = assay: as above; conditions: RPMI 5 mM glucose + 10% FBS, 48 h
Outline: as §1

NOMO1 = assay: AUC of viability dose-response curve (% viability x log10 dose units); higher = less sensitive; conditions: 48 h
Outline: (§2)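 Library compounds in DMSO were applied for 48 h at 37°C at 11 threefold doses (47 μM to 0.79 nM) to medium-adapted leukemia cells in 1536-well plates holding 500 or 1000 cells/well. Luminescence from CellTiter-Glo One was normalised plate by plate against DMSO and cell-free wells. Area under the curve came from trapezoidal integration of a log-logistic fit, after scaling curves that rose above full viability and discarding those that failed quality control. The fit had four parameters and used log10 doses.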

P12-Ichikawa [3] = assay: as above; conditions: 48 h
Outline: as §2

SEM cells [4] = assay: as above; conditions: 48 h
Outline: as §2

[5] = RPMI 5 mM glucose + 10% dialyzed FBS

| SMILES | cell viability (P12-Ichikawa [1]; 0.000781 µM) [%] | cell viability (P12-Ichikawa [1]; 0.00234 µM) [%] | cell viability (P12-Ichikawa [1]; 0.00702 µM) [%] | cell viability (P12-Ichikawa [1]; 0.0211 µM) [%] | cell viability (P12-Ichikawa [1]; 0.0632 µM) [%] | cell viability (P12-Ichikawa [1]; 0.19 µM) [%] | cell viability (P12-Ichikawa [1]; 0.569 µM) [%] | cell viability (P12-Ichikawa [1]; 1.71 µM) [%] | cell viability (P12-Ichikawa [1]; 5.12 µM) [%] | cell viability (P12-Ichikawa [1]; 15.4 µM) [%] | cell viability (P12-Ichikawa [1]; 46.1 µM) [%] | cell viability (SEM cells [2]; 0.000781 µM) [%] | cell viability (SEM cells [2]; 0.00234 µM) [%] | cell viability (SEM cells [2]; 0.00702 µM) [%] | cell viability (SEM cells [2]; 0.0211 µM) [%] | cell viability (SEM cells [2]; 0.0632 µM) [%] | cell viability (SEM cells [2]; 0.19 µM) [%] | cell viability (SEM cells [2]; 0.569 µM) [%] | cell viability (SEM cells [2]; 1.71 µM) [%] | cell viability (SEM cells [2]; 5.12 µM) [%] | cell viability (SEM cells [2]; 15.4 µM) [%] | cell viability (SEM cells [2]; 46.1 µM) [%] | AUC of viability dose-response curve (NOMO1; HPLM + 10% dialyzed FBS) | AUC of viability dose-response curve (NOMO1; RPMI 5 mM glucose + 10% FBS) | AUC of viability dose-response curve (NOMO1; [5]) | AUC of viability dose-response curve (P12-Ichikawa [3]; HPLM + 10% dialyzed FBS) | AUC of viability dose-response curve (P12-Ichikawa [3]; RPMI 5 mM glucose + 10% FBS) | AUC of viability dose-response curve (P12-Ichikawa [3]; [5]) | AUC of viability dose-response curve (SEM cells [4]; HPLM + 10% dialyzed FBS) | AUC of viability dose-response curve (SEM cells [4]; RPMI 5 mM glucose + 10% FBS) | AUC of viability dose-response curve (SEM cells [4]; [5]) |
| --- | --- | --- | --- | --- | --- | --- | --- | --- | --- | --- | --- | --- | --- | --- | --- | --- | --- | --- | --- | --- | --- | --- | --- | --- | --- | --- | --- | --- | --- | --- | --- |
| CCOC(=O)[C@H](CCc1ccccc1)N[C@@H](C)C(=O)N1[C@H](C(=O)O)C[C@@H]2CCC[C@@H]21 | 117 | 124 | 127 | 124 | 126 | 128 | 123 | 126 | 122 | 115 | 7.37 | 110 | 116 | 117 | 143 | 147 | 127 | 135 | 113 | 121 | 89 | 7.67 | 443 | 449 | 444 | 451 | 451 | 450 | 450 | 440 | 451 |
| O=C1CC[C@@]2(O)[C@H]3Cc4ccc(O)c5c4[C@@]2(CCN3CC2CC2)[C@H]1O5 |  |  |  |  |  |  |  |  |  |  |  |  |  |  |  |  |  |  |  |  |  |  | 419 | 411 | 434 | 459 | 474 | 469 | 469 | 451 | 463 |

Reference: the supplement of paper PMC11451515
